Values quoted from earlier work as cited in US20240293789A1, “Encapsulation of Functional Additives in Partially-Open Microcapsules” (priority 2023, published 2024).

Conditions: common solvents used for the encapsulated materials; reference table

| solubility in water | Compound |
| --- | --- |
| Insoluble | Cc1ccc(C)cc1 [p-xylene] |
| Miscible | CCO [ethanol] |
| Miscible | OCC(O)CO [glycerin] |
| Insoluble | Cc1cccc(C)c1 [m-xylene] |
| Miscible | COCCOCCOC [diethylene glycol dimethyl ether] |
| 0.0055 g/100 g | C1CCCCC1 [cyclohexane] |
| 8.7 g/100 g | CCOC(C)=O [ethyl acetate] |
| Miscible | CN(C)P(N(C)C)N(C)C [Hexamethylphosphorous triamide (HMPT), Hexamethylphosphorous triamide] |
| Insoluble | Cc1ccccc1C [o-xylene] |
| 0.0014 g/100 g | CCCCCC [hexane] |

| Compound | solubility in water |
| --- | --- |
| CCCCCCC [heptane] | 0.01 g/100 g |
| COCCOC [1,2-dimethoxy-ethane (glyme, DME), 1,2-dimethoxy-ethane] | Miscible |
| CCCCC [pentane] | 0.04 g/100 g |
| CCOCC [diethyl ether] | 7.5 g/100 g |
